# Experimental data from patent US11918659B2, “Materials and methods for inducing therapeutic hypothermia in a mammalian subject” (priority 2018, dated 2024).
# Tested on: TRPV1-overexpressed HEK293 cells
# Details: FIGS. 1F-1K, tested concentrations 0-5 μM
smiles,measurement,value
CC(C)(C)c1cc2c(O)c(c1)Cc1cc(C(C)(C)C)cc(c1O)Cc1cc(C(C)(C)C)cc(c1O)Cc1cc(C(C)(C)C)cc(c1O)C2 [4-tert-Butylcalix[4]arene],toxicity on the cells of the calixarene derivative in the formulation,did not cause any toxicity
